Results published in US20230390296A1, “NOVEL TREATMENT AND PREVENTION OF SARCOPENIA-RELATED DISEASES” (KEIO UNIVERSITY, priority 2020, published 2023).

How the values were obtained:
C2C12 cells = test: Gene expression levels in treated cultured cells; format: cell-based, mouse
Method: Mouse striated muscle derived cells, i.e., C2C12 cells, were cultured and treated with OK-1, ICG-001, or C-82. Gene expression levels of cells treated with OK-1, ICG-001, or C-82, and untreated cells are compared.

old mice (C57BL/6J) = test: Treadmill test of muscle strength (endurance) in young and old mice; format: in vivo, mouse; details: intraperitoneal, twice a week over three months, 20 mg/kg/day; young (15-week) and old (79-week) mice
Excerpt: Decrease in endurance in old mice In order to confirm that a decrease in muscle strength is observed in mouse models (C57BL/6J) (purchased from Oriental Yeast), the muscle strength (endurance) in 15-week old young mice and 79-week-old old mice was investigated in a treadmill test in accordance with the following (FIG. 1A). Prior to recording the performance, mice were trained for 3 days to acclimate the mice to the equipment. Electric stimulation grid was adjusted to 1 mA, and the gradient was set to 15 degrees. On the first day of training, mice were induced to walk for 10 minutes at a rate of 10 m/minute, allowed to rest for 10 minutes, and then induced to walk for 10 minutes at a rate of 10 m/minute on a treadmill. On day 2 and day 3, the first two steps were the under the same conditions as day 1, and then the mice were induced to start walking at 10 m/minute. The speed was increased by 1 m/minute until reaching the maximum speed of 20 m/minute. On day 4, the maximum exercise endurance was measured. Six mice were placed on a treadmill, which was started at a belt speed of 5 m/minute for 5 minutes to let the mice warm up. The speed was increased 1 m/minute until reaching the maximum speed of 20 m/minute. After making the mice run for 5 minutes, the speed was increased from 20 m/minute to 21 m/minute for 10 minutes. The mice were then forced to run at 22 m/minute until stalling on the electric stimulation grid for 10 seconds. The distance traveled until stalling for 10 seconds was measured.
(§1) OK-1 manufactured in Manufacturing Example 1 was intraperitoneally administered to young and old mice twice a week over three months. The dosage was 20 mg/kg/day.
74-week old mice (C57B16/J) were purchased from Oriental Yeast. […] Muscle strength (endurance) and grip strength of mice administered with C-82 were then measured through a treadmill test and smart grip strength meter for rats and mice (Muromachi Kikai Co., Ltd.), respectively. […]

old mice = test: Muscle mass by MRI (volume of right gastrocnemius muscle/soleus muscle), with/without treadmill exercise; format: in vivo, mouse
Method: OK-1 was then intraperitoneally administered to each mouse twice a week at 20 mg/kg/day over 8 weeks (i.e., until reaching 23 week old and 88 week old, respectively). Treadmill exercise was conducted three times a week at 8 m/minute for 5 minutes→15 m/minute for 35 minutes while administering OK-1 twice a week at 20 mg/kg/day over 5 weeks (i.e., until reaching 28 week old and 93 week old, respectively). The muscle mass was then measured with the following equipment and conditions through MRI (FIG. 1B). MRI (MRminiSA1545, Japan REDOX) (magnetic flux density: 1.5 tesla (permanent magnet) (temporal resolution: 100 ns) was used to capture images of the lower limbs of the mice. The recovered data was converted into dicom data, and the volume of right gastrocnemius muscle/soleus muscle was quantified with Osirix Lite.

[1] = Body weight and behavior during the dosing period; format: in vivo, mouse; details: intraperitoneal, twice a week over three months, 20 mg/kg/day; young and old mice
Method: as §1

[2] = tested on: Activin Receptor and ACVR2B; details: cited from earlier work

O=C1[C@H](Cc2ccc(O)cc2)N2C(=O)CCN(C(=O)NCc3ccccc3)[C@H]2CN1Cc1cccc2ccccc12 [ICG-001]
gene expression levels versus untreated cells (C2C12 cells): change in gene expression similar to Example 2

O=C1[C@H](Cc2ccc(O)cc2)N2C(=O)CCN(C(=O)NCc3ccccc3)[C@H]2CN1Cc1cccc2ccccc12 [compound 8]
muscle strength (endurance) through a treadmill test (old mice (C57BL/6J)): increase in muscle strength due to administration of compound 8 was observed specifically in old mice | muscle mass (MRI), combined use of administration with exercise (old mice; 20 mg/kg/day twice a week plus treadmill exercise three times a week over 5 weeks): muscle mass significantly recovers synergistically | muscle mass (MRI) (old mice; intraperitoneal 20 mg/kg/day twice a week over 8 weeks, then 5 further weeks): increases muscle mass in old mice | change in body weight and behavioral abnormality during the dosing period [1]: a significant change in body weight and behavioral abnormality were not observed

B1: Bimagrumab: monoclonal antibodies (bimagrumab) developed by targeting Activin Receptor and ACVR2B (antibody, chains of the INN, looked up, V domains shown)
VH: QVQLVQSGAEVKKPGASVKVSCKASGYTFTSSYINWVRQAPGQGLEWMGTINPVSGSTSYAQKFQGRVTMTRDTSISTAYMELSRLRSDDTAVYYCARGGWFDYWGQGTLVTVSS
VL: QSALTQPASVSGSPGQSITISCTGTSSDVGSYNYVNWYQQHPGKAPKLMIYGVSKRPSGVSNRFSGSKSGNTASLTISGLQAEDEADYYCGTFAGGSYYGVFGGGTKLTVL
muscle mass ([2]; background statement): promotes muscle differentiation to increase muscle mass | sarcopenia symptoms including the gait speed and grip strength ([2]; phase 2 trial completed, development discontinued in 2018): has not resulted in dramatic improvement in sarcopenia symptoms including the gait speed and grip strength
